The source made the active and inactive calls. The calls are words filed in the database; no cut-off is given here.
Experiments:
SARS-CoV-2 [1] = test: Antiviral activity against luciferase independent SARS CoV-2 spike-pseudotyped lentivirus infected in human A549-hACE2-TMPRSS2 cells assessed as inhibition of viral entry by measuring reduction in luciferase activity incubated for 24 hrs by luciferase reporter assay; format: functional, organism-based; conditions: Severe acute respiratory syndrome coronavirus 2
SARS-CoV-2 [2] = test: Antiviral activity against luciferase independent SARS CoV-2 spike-pseudotyped lentivirus infected in human A549-hACE2-TMPRSS2 cells assessed as inhibition of viral entry measured after 24 hrs before centrifugation by luciferase reporter assay; format: functional, organism-based; conditions: Severe acute respiratory syndrome coronavirus 2, A549-hACE2-TMPRSS2
SARS-CoV-2 [3] = test: Antiviral activity against SARS CoV-2 spike-pseudotyped lentivirus infected in human A549-hACE2-TMPRSS2 cells assessed as inhibition of viral entry incubated for 24 hrs in absence of BSA by luciferase reporter assay; format: functional, organism-based; conditions: Severe acute respiratory syndrome coronavirus 2, A549-hACE2-TMPRSS2, 24 h
[4] = Aggregation property of compound in 50 mM KPi buffer at pH 7 assessed as critical aggregation concentration by DLS assay; format: physicochemical
[5] = Aggregation property of compound in DMEM media assessed as critical aggregation concentration by DLS assay; format: physicochemical
Sus scrofa [6] = organism: Sus scrofa; test: (§1) Inhibition of porcine heart MDH using oxaloacetic acid as substrate assessed as enzyme recovery by measuring residual activity at approximately IC90 preincubated for 5 mins in presence of triton X-0.01% followed by substrate and NADPH addition and measured for 80 sec by absorbance based analysis relative to control; conditions: time 380.0 sec
[7] = Inhibition of porcine heart MDH using oxaloacetic acid as substrate preincubated for 5 mins followed by substrate and […] addition and measured for 80 sec by absorbance based analysis; design: species or system Sus scrofa
[8] = Absorption property of compound in DMEM media at 100 to 200 uM at 500 to 700 nm by luciferase assay; format: physicochemical; conditions: dose 100-200 µM
Sus scrofa [9] = organism: Sus scrofa; test: as §1, with “10 mg/ml BSA” for “triton X-0.01%”, “enzyme” for “substrate and NADPH”, “after 5 mins” for “for 80 sec”; conditions: time 10.0 min
SARS-CoV-2 [10] = test: Antiviral activity against SARS CoV-2 spike-pseudotyped lentivirus infected in human A549-hACE2-TMPRSS2 cells assessed as inhibition of viral entry preincubated with 10 mg/ml BSA for 5 mins followed by viral infection and further incubated for 24 hrs by luciferase reporter assay; format: functional, organism-based; conditions: Severe acute respiratory syndrome coronavirus 2, A549-hACE2-TMPRSS2
SARS-CoV-2 [11] = test: Antiviral activity against luciferase independent SARS CoV-2 spike-pseudotyped lentivirus infected in human A549-hACE2-TMPRSS2 cells assessed as inhibition of viral entry compound spin-down for 1 hr followed by viral infection and measured after 24 hrs by luciferase reporter assay; format: functional, organism-based; conditions: Severe acute respiratory syndrome coronavirus 2, A549-hACE2-TMPRSS2
[12] = molecular target: Spike glycoprotein (Severe acute respiratory syndrome coronavirus 2) (UniProt P0DTC2); test: (§2) Binding affinity to Alex-fluor-647 labeled SARS-CoV-2 spike protein assessed as protein-colloid complex formation by measuring fluorescence puncta formation at 200 uM incubated for 5 mins by confocal microscopic analysis
SARS-CoV-2 [13] = test: Antiviral activity against luciferase independent SARS CoV-2 spike-pseudotyped lentivirus infected in human A549-hACE2-TMPRSS2 cells assessed as inhibition of viral entry at 31.6 to 63.3 uM compound spin-down for 1 hr followed by viral infection and measured after 24 hrs by luciferase reporter assay; format: functional, organism-based; conditions: Severe acute respiratory syndrome coronavirus 2, dose 31.6-63.3 µM, time 25.0 hrs
SARS-CoV-2 [14] = test: Antiviral activity against SARS-CoV-2; format: functional, organism-based; conditions: Severe acute respiratory syndrome coronavirus 2
SARS-CoV-2 [15] = test: Antiviral activity against SARS-CoV-2 infected in Vero E6 cells assessed as reduction in viral infectivity; format: functional, organism-based; conditions: Severe acute respiratory syndrome coronavirus 2, Vero C1008
[16] = Cytotoxicity against human A549-hACE2-TMPRSS2 assessed as reduction in cell viability incubated for 24 hrs by MTT assay; format: toxicity, cell-based; conditions: a549-hace2-tmprss2, 24 h
[17] = molecular target: Spike glycoprotein (Severe acute respiratory syndrome coronavirus 2) (UniProt P0DTC2); test: Binding affinity to Alex-fluor-647 labeled SARS-CoV-2 spike protein assessed as protein-colloid complex formation by measuring fluorescence puncta formation incubated for 5 mins in presence of 0.025% Tween-80 by confocal microscopic analysis
[18] = molecular target: Spike glycoprotein (Severe acute respiratory syndrome coronavirus 2) (UniProt P0DTC2); test: as §2, with “compound preincubated with 10 mg/ml BSA for 5 mins followed by protein addition and further” for “at 200 uM”
[19] = molecular target: Spike glycoprotein (Severe acute respiratory syndrome coronavirus 2) (UniProt P0DTC2); test: Binding affinity to Alex-fluor-647 labeled SARS-CoV-2 spike protein assessed as protein-colloid complex formation by measuring fluorescence puncta formation incubated for 5 mins by confocal microscopic analysis
SARS-CoV-2 [20] = test: Antiviral activity against SARS-CoV-2 pseudovirus infected in 293T/ACE2 cells assessed as reduction in virus entry preincubated with compound followed by infection in cells and measured after 48 hrs by luciferase based assay; format: functional, organism-based; conditions: Severe acute respiratory syndrome coronavirus 2, 293T/ACE2

| SMILES | Activity (SARS-CoV-2 [1]) | EC50 (SARS-CoV-2 [2]) | EC50 (SARS-CoV-2 [3]) | CAC [4] | CAC [5] | Activity (Sus scrofa [6]) | IC50 [7] | Activity [8] | Activity (Sus scrofa [9]) | EC50 (SARS-CoV-2 [14]) | further results |
| --- | --- | --- | --- | --- | --- | --- | --- | --- | --- | --- | --- |
| CCOC(=O)c1c(CSc2ccccc2)n(C)c2cc(Br)c(O)c(CN(C)C)c12 [UMIFENOVIR] | Active | 0.44 µM | 0.26 µM | 58 µM | 28 µM | 58% | 8.6 µM | Not Active | 43% | – | EC50 (SARS-CoV-2 [10]): 25 µM |
| CN1CCCC(n2nc(Cc3ccc(Cl)cc3)c3ccccc3c2=O)CC1 (stereo not given) [AZELASTINE] | Active | 18.7 µM | 27 µM | – | – | – | – | – | – | – | EC50 (SARS-CoV-2 [10]): 44.7 µM; EC50 (SARS-CoV-2 [11]): 12.9 µM; Activity [12]: inactive |
| O=C(O[C@@H]1Cc2c(O)cc(O)cc2O[C@@H]1c1cc(O)c(O)c(O)c1)c1cc(O)c(O)c(O)c1 [EPIGALOCATECHIN GALLATE] | – | – | 35.1 µM | – | – | 63.3% | – | – | 53% | 5.38 µM | Activity (SARS-CoV-2 [13]): Active |
| COc1cc(/C=C/C(=O)CC(=O)/C=C/c2ccc(O)c(OC)c2)ccc1O [CURCUMIN] | – | – | – | 26 µM | 12 µM | 116% | 14 µM | Not Active | 124% | – | EC50 (SARS-CoV-2 [15]): 16.3 µM |
| C[C@]12CC[C@@H]3c4ccc(O)cc4C[C@@H](CCCCCCCCC[S+]([O-])CCCC(F)(F)C(F)(F)F)[C@H]3[C@@H]1CC[C@@H]2O (stereo not given in full) [FULVESTRANT] | Active | 0.19 µM | – | – | – | – | – | – | – | – | – |
| COc1c(O)cc2oc(-c3ccccc3)cc(=O)c2c1O [OROXYLIN A] | – | – | – | – | – | 42% | 73 µM | Not Active | 33% | 20 µM | Activity (SARS-CoV-2 [13]): Active |
| Cc1cc(O)c2c(=O)c3c(O)cc(O)c4c5c(O)cc(O)c6c(=O)c7c(O)cc(C)c8c1c2c(c34)c(c78)c65 [HYPERICIN] | – | – | 84.4 µM | 3.3 µM | 3.7 µM | 90% | 0.3 µM | Not Active | 99% | 1.24 µM | – |
| Oc1ccc(-c2[o+]c3cc(O)cc(O)c3cc2O)cc1.[Cl-] [PELARGONIDIN CHLORIDE] | – | – | – | 79 µM | 56 µM | 83% | 8.1 µM | Not Active | 130% | 50 µM | – |
| CC1(C)Cc2c(-c3ccccc3)c(-c3ccc(Cl)cc3)c(CC(=O)O)n2C1 [LICOFELONE] | – | – | – | 54 µM | 5.5 µM | – | 23 µM | Not Active | – | – | Activity [16]: Toxic |
| Cc1cc(O)c2c(c1)C(=O)c1cc(O)cc(O)c1C2=O [EMODIN] | Active | 2.22 µM | 2.21 µM | 8.6 µM | 63.1 µM | – | 39 µM | Not Active | 67% | 25 µM | Activity [17]: inactive; Activity [18]: inactive; Activity [19]: Active |
| C[C@]12CC[C@@H]3c4ccc(OC(=O)c5ccccc5)cc4CC[C@H]3[C@@H]1CC[C@@H]2O [ESTRADIOL BENZOATE] | – | – | – | 9.3 µM | 1.8 µM | 89.1% | 87 µM | Not Active | 62% | – | EC50 (SARS-CoV-2 [20]): 0.27 µM |
